In publication PMC11062894, “Protein-based bandpass filters for controlling cellular signaling with chemical inputs” (Nature Chemical Biology, 2023):
Where “and” joins values, the source holds several entries; their conditions need not be identical. Identical values can stand only once.

Test system: GEMS receptors with CBPA11 (BclXL–LD3 and BclXLhigh variants), STAT3-driven SEAP in HEK293T cells
Test: GEMS SEAP reporter assay, CBPA11 (BclXLhigh, LD3-v and BclXL-v variants) with A-1155463
Assay type: cell-based
Design: key to Raw data (SEAP) / SEAP, replicate values / Raw data of Figure 5b / Raw data Figure 5e / Raw data of Independent repeat of CBPA11-v1 vs CBPA11-v1-LD3v3 / Raw data of Independent repeat of CBPA11-v3 vs CBPA11-v3-LD3v3 / Raw data of Figure 5b, CBPA11-v1-LD3v3 (SEAP reporter raw value, single replicate) / Raw data of Figure 5b, CBPA11-v1 (SEAP reporter raw value, single replicate): SEAP activity in U/L in culture supernatant
Settings: for SEAP (U/L): Figure 4d, representative data and independent repeats 1, 2 (triplicates); for Normalized data (SEAP) / Raw data (SEAP): SuppFigure 9a
Description: To rationally design a CBP responding to a chemical input, we used BclXL as the druglow receptor, LD3 as the designed binder and a designed BclXL variant as the drughigh receptor (referred to as BclXLhigh) to construct a CBP responsive to BclXL inhibitors (Fig. 4a). To design BclXLhigh, we used a multistate design computational protocol described elsewhere[26] […] Thus, BclXLhigh-v(1–3) were chosen as the functional drughigh receptors, resulting in three A-1155463-controlled CBPs (referred to as CBPA11-v(1–3)) (Fig. 4c–e).
HEK293T cells were seeded in a 96-well plate 24 h before transfection. The transfection mix in each well consisted of 3 ng of constitutive human CMV promoter driven mammalian STAT3 expression vector (PhCMV-STAT3-pA), 30 ng of STAT3-induced reporter expression (OStat3-PhCMVmin-SEAP-pA) and 50 ng of expression vectors for each GEMS receptor chain (PSV40-IgK-(drughigh receptor)-EpoRm-IL-6RBm-pA and PSV40-IgK-(druglow receptor-GGGGSX3-LD3)-EpoRm-IL-6RBm-pA). For the specific drughigh receptor and druglow receptor used in the different cellular assays, they are indicated as wild type or with mutations. Then, plasmid DNA was mixed with 50 μl opti-MEM (Thermo Fisher) and 600 ng of polyethyleneimine (Polysciences, catalog no. 24765-1). For drug treatment experiments, drugs were added 12 h post-transfection and incubated with cells for 24 h before the SEAP reporter detection assay.
SEAP activity (U l^−1) in cell culture supernatants was quantified by kinetic measurements at 405 nm (1 minute per measurement for 30 cycles) of absorbance increase due to phosphatase-mediated hydrolysis of para-nitrophenyl phosphate (pNPP).
Binding affinities of SPR drug competition assays were calculated using three-parameter nonlinear regression in GraphPad Prism (v.8.3.0). Representative data of cell assays are presented as individual values and mean values (bars). n = 3 refers to biological replicates. All IC50 or EC50 values of cell assays reported were calculated using four-parameter nonlinear regression ± s.d. Bandpass features of cutoff concentrations and Bandwidth90% were estimated based on the curve fitted using bell-shaped curve nonlinear regression in GraphPad Prism (v.8.3.0). […]
Supplementary Figure 4: Design, screening and validation of BclXLhigh variants. a) Screening of BclXLhigh variants in the GEMS platform. […]
Dissociation constant measurement of BclXLhigh-v(1-3) and LD3. Equilibrium curves are fitted using […]
BclXLhigh-v1 (purple), BclXLhigh-v2 (blue), […]
a) Bcl2high-based bandpass filter designs were developed and to respond to different concentrations of […]
corresponding inhibitor. c) Screening of Bcl2high-based bandpass filter variants in the GEMS platform.
The designed binder LD3 was fused to the druglow-receptor (PSV40-IgK-Bcl2-LD3-EpoRm-IL-6RBm-pA) in one EpoR chain and Bcl2high variants with the insensitive Bcl2 (iBcl2) as control in the other EpoR chain (PSV40-IgK-Bcl2high-EpoRm-IL-6RBm-pA). HEK293T cells were transfected with indicated […]
the mean of six biological replicates ± s.d., overlaid with a scatter dot plot of the original data points.
(1 picture or pasted object on this page, not shown here)
Supplementary Figure 6: Binding affinities and drug resistances of Bcl2high-v(2,4,5) assessed by […]
a) Measurement of dissociation constants for Bcl2high-v(2,4,5) and LD3 interactions. Equilibrium curves […]
Bcl2high-v(2,4,5) measured by SPR. 5 μM of Bcl2 or indicated variants were mixed with 10 μM of […]
Bcl2high-v2 (red), Bcl2high-v4
Supplementary Figure 7: Screening of LD3 variants in CBPA11-v(1-3) and raw data of CBPA11-v(1,3) with LD3-v3 variant. a-c) Screening of LD3 and LD3-v(1-3) variants in complex with BclXL for more sensitive CBPA11-v1 (a), CBPA11-v2 (b), CBPA11-v3 (c) in the GEMS platform. The LD3 variants replaced the role of LD3 (PSV40-IgK-BclXL-LD3-v(1-3)-EpoRm-IL-6RBm-pA) in one EpoR chain and BclXLhigh-v(1-3) in the other EpoR chain (PSV40-IgK-BclXLhigh-V(1-3)-EpoRm-IL-6RBm-pA). HEK293T cells were transfected with […]

[1] = CBPA11-v3-LD3v3, A-1155463 10000 nM

CN(C)CC#Cc1ccc(OCCCc2sc(N3CCc4cccc(C(=O)Nc5nc6ccccc6s5)c4C3)nc2C(=O)O)c(F)c1 [A-1155463]
Normalized data of Figure 5b [1]: 13.381 and 8.285 and 13.0686
Raw data of Figure 5b [1]: 11.3652 and 7.762 and 13.9821
SEAP (U/L) (A-1155463 1 nM): 8.303 U/L and 10.1289 U/L and 7.12 U/L and 9.7586 U/L and 8.864 U/L and 9.857 U/L
SEAP (U/L) (A-1155463 3.16 nM): 6.744 U/L and 8.922 U/L and 8.703 U/L and 12.2331 U/L and 8.658 U/L and 8.903 U/L
Normalized data (SEAP) (BclXL-v1, A-1155463 1 nM): 9.876
Raw data (SEAP) (BclXL-v1, A-1155463 1 nM): 9.508
Normalized data (SEAP) (BclXL-v1, A-1155463 3.16 nM): 8.253
Raw data (SEAP) (BclXL-v1, A-1155463 3.16 nM): 7.946
Normalized data (SEAP) (BclXL-v1, A-1155463 100 nM): 78.5603
Raw data (SEAP) (BclXL-v1, A-1155463 100 nM): 75.6338
Normalized data (SEAP) (BclXL-v1, A-1155463 316 nM): 100
Raw data (SEAP) (BclXL-v1, A-1155463 316 nM): 96.2749
Normalized data (SEAP) (BclXL-v1, A-1155463 1000 nM): 71.1878
Raw data (SEAP) (BclXL-v1, A-1155463 1000 nM): 68.536
Normalized data (SEAP) (BclXL-v1, A-1155463 3160 nM): 30.3077
Raw data (SEAP) (BclXL-v1, A-1155463 3160 nM): 29.1787
Normalized data (SEAP) (BclXL-v1, A-1155463 10000 nM): 12.5367
Raw data (SEAP) (BclXL-v1, A-1155463 10000 nM): 12.0697
Normalized data (SEAP) (BclXL-v2, A-1155463 1 nM): 3.201
Raw data (SEAP) (BclXL-v2, A-1155463 1 nM): 9.801
Normalized data (SEAP) (BclXL-v2, A-1155463 3.16 nM): 2.258
Raw data (SEAP) (BclXL-v2, A-1155463 3.16 nM): 6.914
Normalized data (SEAP) (BclXL-v2, A-1155463 100 nM): 100
Raw data (SEAP) (BclXL-v2, A-1155463 100 nM): 306.188
Normalized data (SEAP) (BclXL-v2, A-1155463 316 nM): 84.9937
Raw data (SEAP) (BclXL-v2, A-1155463 316 nM): 260.24
Normalized data (SEAP) (BclXL-v2, A-1155463 1000 nM): 53.3071
Raw data (SEAP) (BclXL-v2, A-1155463 1000 nM): 163.22
Normalized data (SEAP) (BclXL-v2, A-1155463 3160 nM): 38.1484
Raw data (SEAP) (BclXL-v2, A-1155463 3160 nM): 116.806
Normalized data (SEAP) (BclXL-v2, A-1155463 10000 nM): 23.1544
Raw data (SEAP) (BclXL-v2, A-1155463 10000 nM): 70.8961
Normalized data (SEAP) (BclXL-v3, A-1155463 1 nM): 38.0177
Raw data (SEAP) (BclXL-v3, A-1155463 1 nM): 3.662
Normalized data (SEAP) (BclXL-v3, A-1155463 3.16 nM): 36.4228
Raw data (SEAP) (BclXL-v3, A-1155463 3.16 nM): 3.509
Normalized data (SEAP) (BclXL-v3, A-1155463 100 nM): 68.011
Raw data (SEAP) (BclXL-v3, A-1155463 100 nM): 6.552
Normalized data (SEAP) (BclXL-v3, A-1155463 316 nM): 43.5621
Raw data (SEAP) (BclXL-v3, A-1155463 316 nM): 4.196
Normalized data (SEAP) (BclXL-v3, A-1155463 1000 nM): 47.9459
Raw data (SEAP) (BclXL-v3, A-1155463 1000 nM): 4.619
Normalized data (SEAP) (BclXL-v3, A-1155463 3160 nM): 98.7391
Raw data (SEAP) (BclXL-v3, A-1155463 3160 nM): 9.512
Normalized data (SEAP) (BclXL-v3, A-1155463 10000 nM): 92.8941
Raw data (SEAP) (BclXL-v3, A-1155463 10000 nM): 8.949
Normalized data (SEAP) (BclXL, A-1155463 1 nM): 5.357
Raw data (SEAP) (BclXL, A-1155463 1 nM): 23.0325
